These results are taken from patent publication US20110177046A1, “DITHIAZOLIDINE AND THIAZOLIDINE DERIVATIVES AS ANTICANCER AGENTS” (Betagenon AB, priority 2007, published 2011).

The test system of one test is AMPK. The test can be described thus: Test F activation of AMPK, Western blot of phospho-AMPKα Thr172 in HepG2 cells. Type of test: cell-based, human. Conditions: 10 μM. As for the experimental part: (§1) The compound of Example 1 was obtained from Isosep AB, Uppsala, Sweden. A stock solution of 10 mM was prepared by dissolving the compound in 100% DMSO.
(§2) Human hepatoma HepG2 cells were purchased from American Type Culture Collection (ATCC, Manassas, USA). HepG2 cells were cultured in DMEM (Gibco 212885) containing 10% fetal bovine serum (Gibco 10500-064), 100 units/ml penicillin, 100 μg/ml streptomycin (Gibco 15140-122) and 1× non essential amino acids (Gibco 11140). The cells were incubated in a humidified atmosphere of 5% CO2 at 37° C. and passaged every 3 days by trypsinization. For experiments, HepG2 cells were incubated in complete medium with 10% fetal bovine serum in 60 or 100-mm-diameter dishes and grown to ˜70-80% confluence and subjected to assays after overnight serum depletion (16 h). After incubation in serum-free DMEM, the compound of Example 1 that was dissolved in DMSO was added to the medium.
Cells were lysed in 100 mM TRIS pH 6.8, 2% w/v Sodium dodecyl sulfate (SDS), 10 mM NaF, 10 mM β-glycerophosphate, 1 mM Na Vanadate. Protein concentration of the lysates was measured by BCA protein assay kit (Pierce #23225). 25 μg protein was loaded in each well of a 4-12% bis/tris gel for AMPK detection (Criterion precast gel Bio-Rad #345-0124) or 5% Tris-HCl gel for acetyl-CoA carboxylase (ACC) detection (Criterion Precast gel Bio-Rad #345-0002) and run according to manufacturers recommendation. Gels were blotted onto nitrocellulose filters (Hybond-C extra Amersham #RPN203E). Filters were blocked in 20 mM TRIS pH 7.5, 137 mM NaCl, […] and 5% w/v fat free powdered milk for 30 min. Filters were incubated overnight in blocking solution with phospho-AMPKαThr172, AMPKα or phospho-ACC (Ser 79) (Cell signalling #2531, #2532 and #3661). Filters were washed in 20 mM TRIS pH 7.5, 137 mM NaCl, […] for 3×5 min. Filters were incubated in blocking solution with secondary antibody, peroxidase-conjugated Goat anti rabbit IgG (Jackson immunoResearch #111-035-003) in room temperature for 1 h. Filters were washed as above for 3×10 min. […]
A general note: In western blotting, separated proteins are transferred to a membrane and probed.

For test [1], the system named is human primary mesangial cells. The test can be described thus: Test G amelioration of TGFβ dependent collagen IV secretion (ELISA). Type of test: cell-based. Conditions: 2.5 μM with TGFβ 0.5 ng/ml, 48 h, ELISA absorbance. As for the experimental part:
Human primary mesangial cells (Lonza) were seeded at a density of 57 00 cells per well in a 24 well plate in DMEM (Gibco 212885) supplemented with Non essential amino acids (Gibco 11140) Penicillin/streptomycin (Gibco 15140-122) and 10% Foetal Calf Serum (FBS) (Gibco 10500-064)
After 24 h incubation, media was changed to DMEM (Gibco 212885) supplemented with Non essential amino acids (Gibco 11140) Penicillin/streptomycin (Gibco 15140-122) and 0.5% Foetal Calf Serum (FBS)(Gibco 10500-064) as the experimental media. After 24 h incubation, media was changed to experimental media containing either vehicle or […] (0.5 ng/ml), compound of Example 1 (2.5 μM), or TGFβ (0.5 ng/ml) and compound of Example 1 (2.5 μM) in combination.
After 48 h of exposure the supernatant from each well was collected and subjected to ELISA analysis.
Using Nunc Maxisorp microtiter plates, duplicate samples of conditioned cell culture medium (diluted 1:10) was used for coating ([…], 18 h, +4° C.). […] After 3× washing in ELISA buffer, reactions were visualised using 100 μl/well TMB liquid substrate system for ELISA (Sigma) After maximum 30 min reactions were stopped by addition of 25 μl 1 M H2SO4 and immediately analysed at 450 nm using a Multiskan EX plate reader (Thermo Labsystems).
A general note: ELISA stands for enzyme-linked immunosorbent assay.

The test system of test [2] is Ob/Ob mice. The test can be described thus: Test E plasma triglyceride study in diabetic Ob/Ob mice, Method (II). Type of test: in vivo. To be noted: fed Ob/Ob mice, 15 mg/kg gavage twice daily for 20 days, vs vehicle. As for the experimental part: The aim of this study was to verify the efficacy of compound of Example 1 in the diabetic ob/ob mouse with regard to correction of the metabolic disorder hypertriglyceridemia. Ob/ob mice were gavaged twice daily with compound of example 1 and the effect of the compound on levels of plasma triglycerides were assessed and the results were compared to a concurrent control group gavaged with vehicle.
Male B6.V-Lep^ob/JUmeaTac (model number UMEA-M) mice were bred and delivered by Taconic. Animals were housed in Umea University animal facility in transparent polycarbonate cages, with wood chip bedding at a 12 h light/darkness cycle, a temperature of […], and a relative humidity of −50% throughout the accommodation and dosing periods. 5 animals were housed in each cage with free access to standard rodent chow (CRM(E)Rodent, Special Diets Services, Scanbur BK, Sweden) and tap water. All animal experiments were approved by the Local Ethics Review Committee on Animal Experiments, Umea Region.
(§3) In vivo potency and efficacy were determined in groups of 10 mice. […]
Plasma triglycerides were determined with an enzymatic colorimetric assay (TRO100, Sigma-Aldrich) according to the manufacturer's recommendations.
(§4) Data in the figures are presented as means±SEM. P values were calculated using the Student's t-test. […]

For test [3], the system named is MDA-MB-231 human breast cancer cells xenograft tumors. Put plainly: Test B in vivo mouse model Test 2, tumor weight. Also on record: species or system Athymic BALB/cA nude mice. Conditions: 8 mg/kg i.p. once daily for 27 days; vehicle control approximately 225 mg. The procedure:
5 week old Athymic BALB/cA nude mice are delivered from Taconic (Denmark) and kept under barrier conditions for 1 week acclimatisation. At 6 weeks, 17 mice are injected subcutaneously on the flank with 1.8×10^6 MDA-MB-231 human breast cancer cells (LGC Promochem-ATCC) in a 50/50 v/v solution of phosphate buffered saline (PBS) (Gibco 10010-015, Invitrogen) Matrigel HC (BD Biosciences).
After 11 days, palpable tumors are observed in 16 mice. 2 mice are sacrificed and the tumors dissected and examined. 2 groups of 7 mice each are treated once daily by intraperitoneal injections of 1-10 mg/kg bodyweight of test compound in 79% PBS/20% Solutol HS 15 (BASF)/1% DMSO or vehicle control respectively for 5-30 days. The mice are sacrificed by cervical dislocation and tumors are dissected.
The above test procedure was followed, but 16 (rather than 17) mice were injected subcutaneously.
2 groups of 8 mice each were treated once daily by intraperitoneal injections of 8 mg/kg bodyweight of compound of Example 1 in 79% PBS/20% Solutol HS 15(BASF)/1% DMSO or vehicle control respectively for 27 days. Tumors were dissected and weighed at the end of the experiment.

Test [4] concerns Ob/Ob mice. The test can be described thus: Test D blood glucose measurement study in diabetic Ob/Ob mice, Method (II). Type of test: in vivo. To be noted: 30 mg/kg gavage twice daily for 18 days, vs vehicle. As for the experimental part:
The aim of this study was to verify the efficacy of compound of Example 1 in the diabetic ob/ob mouse with regard to correction of the metabolic disorder hyperglycemia. Ob/ob mice were gavaged twice daily with compound of Example 1 and the effect of the compound on levels of blood glucose were assessed and the results were compared to a concurrent control group gavaged with vehicle.
Male B6.V-Lep^ob/JBomTac (model number OB-M) mice were bred and delivered by Taconic. Animals were housed in Umea University animal facility in transparent polycarbonate cages, with wood chip bedding at a 12 h light/darkness cycle, a temperature of ˜21° C., and a relative humidity of ˜50% throughout the accommodation and dosing periods. 5 animals were housed in each cage with free access to standard rodent chow (CRM(E)Rodent, Special Diets Services, Scanbur BK, Sweden) and tap water. All animal experiments were approved by the Local Ethics Review Committee on Animal Experiments, Umea Region.
as §3
Blood glucose levels were measured by using a Glucometer Elite (Bayer) according to the manufacturer's recommendations.
as §4

The test system of test [5] is Ob/Ob mice. The test can be described thus: Test C insulin measurement study in diabetic Ob/Ob mice, Method (II). To be noted: fed Ob/Ob mice, 30 mg/kg gavage twice daily for 18 days, vs vehicle. The test is classed as in vivo. The procedure: The aim of this study was to verify the efficacy of compound of Example 1 in the diabetic ob/ob mouse with regard to correction of the metabolic disorder hyperinsulinemia. Ob/ob mice were gavaged twice daily with compound of Example 1 and the effect of the compound on levels of plasma insulin were assessed and the results were compared to a concurrent control group gavaged with vehicle.
The compound of Example 1 was obtained from Isosep AB, Uppsala, Sweden. A stock solution of 6 mg/ml was prepared by dissolving the compound in PBS, pH 7.4, 1% DMSO and 0.5% methyl cellulose.
Male B6.V-Lep^ob/JBomTac (model number OB-M) mice were bred and delivered by Taconic. Animals were housed in Umea University animal facility in transparent polycarbonate cages, with wood chip bedding at a 12 h light/darkness cycle, a temperature of […], and a relative humidity of −50% throughout the accommodation and dosing periods. 5 animals were housed in each cage with free access to standard rodent chow (CRM(E)Rodent, Special Diets Services, Scanbur BK, Sweden) and tap water. […]
as §3
Plasma insulin levels were determined according to the manufacturer's recommendations with a rat insulin ELISA kit using mouse insulin standard (Crystal Chem Inc).
as §4

Test [6] has as its system acetyl-CoA carboxylase (ACC). Put plainly: Test F phosphorylation of ACC (Ser 79), Western blot in HepG2 cells. Type of test: cell-based, human. Conditions: 10 μM. As for the experimental part: as §1, §2
Cells were lysed in 100 mM TRIS pH 6.8, 2% w/v Sodium dodecyl sulfate (SDS), 10 mM NaF, 10 mM β-glycerophosphate, 1 mM Na Vanadate. Protein concentration of the lysates was measured by BCA protein assay kit (Pierce #23225). […]

Test [7] concerns MDA-MB-231 human breast cancer cell lines. Put plainly: Test A cell proliferation assay (BrdU incorporation). Type of test: cell-based. Conditions: MDA-MB-231 cells; for BrdU incorporation relative to vehicle control (1 unit): approximate. As for the experimental part:
The cell line was propagated in D-MEM (Gibco 21885) supplemented with 10% Foetal calf serum. 15000 cells per well were seeded in 96 well plates and incubated overnight. The culture media was changed to serum-free D-MEM for 24 h. […] After 18 h incubation, BrdU was added according to manufacturer's recommendations. After 6 h incubation in the presence of BrdU, the culture media was removed and BrdU incorporation was measured using “Cell Proliferation ELISA, BrdU colorimetric” Roche (11647229001) according to manufacturer's recommendations.
Background: Dividing cells build labelled thymidine or BrdU into new DNA.

SMILES strings stand for the structures.

For the compound `O=C1N=C(NS(=O)(=O)c2ccc(Cl)c(Cl)c2)SC1Cc1cccc(C(F)(F)F)c1` (centres unmarked) [Example 1, 5-(3-(Trifluoromethyl)benzyl)-2-(3,4-dichlorophenyl)sulfonyliminothiazolidin-4-one], the “Effect on AMPK phosphorylation” value in the test with AMPK is on record as “stimulates AMPK phosphorylation”. Besides, the “Time for AMPK phosphorylation to rise to near maximal levels” value in the test with AMPK is on record as not above 1 h. Besides, the “Time for which AMPK phosphorylation was sustained” value in the test with AMPK stood at 24 h. Besides, in test [1], the “Effect on TGFβ dependent collagen IV secretion” value is “ameliorate the TGFβ dependent collagen IV secretion”. Also, in the test with Ob/Ob mice [2], the “Effect on plasma triglycerides” value is on record as “attenuated”. In addition, the “Tumor weight at the end of the experiment” value in test [3] is “about 130 mg”. Moreover, the “Effect on fed blood glucose levels” value in the test with Ob/Ob mice [4] is given as “attenuated”. Besides, in the test with Ob/Ob mice [5], the “Effect on hyperinsulinemia (plasma insulin)” value is listed as “attenuates hyperinsulinemia”. Moreover, in test [6], the “Effect on phosphorylation of ACC” value is listed as “enhanced phosphorylation of ACC”. Besides, the “BrdU incorporation relative to vehicle control (1 unit)” value in test [7] (0.5 μM) is approximately 0.95 units; in test [7] (1 μM) it was approximately 1 units; in test [7] (5 μM) it was approximately 0.5 units; in test [7] (10 μM) it was approximately 0.15 units. Further, the “Effect on proliferation rate as measured by BrdU incorporation” value in test [7] was “dose dependent reduction in proliferation”.
